Tested on: yeast genes (expressed mRNA)
Experiment: DNA chip measurement of expressed mRNA of yeast genes after culture with a toxic chemical substance
Assay type: cell-based, Saccharomyces cerevisiae S288C
Details: for level of expressed mRNA in the presence of chemical substance / level in the absence of chemical substance: cultured two hours with the chemical substance; for The level of expressed mRNA in the presence of chemical substance/The level of expressed mRNA in the absence of chemical substance: cultured two hours with substance
Method in brief: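 Fluorescence ratio, treated over untreated, read by chip scanner; ratio of two or more counted significant. Cells: S288C yeast, YPD, 25° C, chemical added at log phase for 2 h at growth-inhibiting, sublethal level. Cy3/Cy5-labeled cDNA from oligo-dT-purified mRNA.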

[Cl][Pb][Cl] [(4), PbCl2]
The level of expressed mRNA in the presence of chemical substance/The level of expressed mRNA in the absence of chemical substance, yeast gene YBR036C (gene YBR036C, Metabolism protein genes, DNA chip fluorescence ratio): 1.2
The level of expressed mRNA in the presence of chemical substance/The level of expressed mRNA in the absence of chemical substance, yeast gene YBR298C (gene YBR298C, Metabolism protein genes, DNA chip fluorescence ratio): 2.3
The level of expressed mRNA in the presence of chemical substance/The level of expressed mRNA in the absence of chemical substance, yeast gene YDL067C (gene YDL067C (mitochondria-located protein gene), yeast cultured two hours with chemical substance, DNA chip fluorescence ratio to control): 1.3
The level of expressed mRNA in the presence of chemical substance/The level of expressed mRNA in the absence of chemical substance, yeast gene YDL078C (gene YDL078C, Metabolism protein genes, DNA chip fluorescence ratio): 0.8
The level of expressed mRNA in the presence of chemical substance/The level of expressed mRNA in the absence of chemical substance, yeast gene YDL215C (gene YDL215C, Metabolism protein genes, DNA chip fluorescence ratio): 1.6
The level of expressed mRNA in the presence of chemical substance/The level of expressed mRNA in the absence of chemical substance, yeast gene YDR079W (gene YDR079W (mitochondria-located protein gene), yeast cultured two hours with chemical substance, DNA chip fluorescence ratio to control): 1.1
The level of expressed mRNA in the presence of chemical substance/The level of expressed mRNA in the absence of chemical substance, yeast gene YDR297W (gene YDR297W, Metabolism protein genes, DNA chip fluorescence ratio): 1.1
The level of expressed mRNA in the presence of chemical substance/The level of expressed mRNA in the absence of chemical substance, yeast gene YDR387C (gene YDR387C, Metabolism protein genes, DNA chip fluorescence ratio): 2.2
The level of expressed mRNA in the presence of chemical substance/The level of expressed mRNA in the absence of chemical substance, yeast gene YGL035C (gene YGL035C, Metabolism protein genes, DNA chip fluorescence ratio): 1.4
The level of expressed mRNA in the presence of chemical substance/The level of expressed mRNA in the absence of chemical substance, yeast gene YGR062C (gene YGR062C (mitochondria-located protein gene), yeast cultured two hours with chemical substance, DNA chip fluorescence ratio to control): 1.4
The level of expressed mRNA in the presence of chemical substance/The level of expressed mRNA in the absence of chemical substance, yeast gene YGR287C (gene YGR287C, Metabolism protein genes, DNA chip fluorescence ratio): 1.5
The level of expressed mRNA in the presence of chemical substance/The level of expressed mRNA in the absence of chemical substance, yeast gene YJL070C (gene YJL070C, Metabolism protein genes, DNA chip fluorescence ratio): 1.2
The level of expressed mRNA in the presence of chemical substance/The level of expressed mRNA in the absence of chemical substance, yeast gene YJL096W (gene YJL096W (mitochondria-located protein gene), yeast cultured two hours with chemical substance, DNA chip fluorescence ratio to control): 1.3
The level of expressed mRNA in the presence of chemical substance/The level of expressed mRNA in the absence of chemical substance, yeast gene YJL180C (gene YJL180C (mitochondria-located protein gene), yeast cultured two hours with chemical substance, DNA chip fluorescence ratio to control): 1.3
The level of expressed mRNA in the presence of chemical substance/The level of expressed mRNA in the absence of chemical substance, yeast gene YKR009C (gene YKR009C, Metabolism protein genes, DNA chip fluorescence ratio): 0.9
The level of expressed mRNA in the presence of chemical substance/The level of expressed mRNA in the absence of chemical substance, yeast gene YLR295C (gene YLR295C (mitochondria-located protein gene), yeast cultured two hours with chemical substance, DNA chip fluorescence ratio to control): 1.7
The level of expressed mRNA in the presence of chemical substance/The level of expressed mRNA in the absence of chemical substance, yeast gene YLR351C (gene YLR351C, Metabolism protein genes, DNA chip fluorescence ratio): 1.5
The level of expressed mRNA in the presence of chemical substance/The level of expressed mRNA in the absence of chemical substance, yeast gene YLR375W (gene YLR375W, Metabolism protein genes, DNA chip fluorescence ratio): 0.9
The level of expressed mRNA in the presence of chemical substance/The level of expressed mRNA in the absence of chemical substance, yeast gene YMR023C (gene YMR023C (mitochondria-located protein gene), yeast cultured two hours with chemical substance, DNA chip fluorescence ratio to control): 1.9
The level of expressed mRNA in the presence of chemical substance/The level of expressed mRNA in the absence of chemical substance, yeast gene YMR267W (gene YMR267W (mitochondria-located protein gene), yeast cultured two hours with chemical substance, DNA chip fluorescence ratio to control): 0.9
The level of expressed mRNA in the presence of chemical substance/The level of expressed mRNA in the absence of chemical substance, yeast gene YMR267W (gene YMR267W, Metabolism protein genes, DNA chip fluorescence ratio): 0.9
The level of expressed mRNA in the presence of chemical substance/The level of expressed mRNA in the absence of chemical substance, yeast gene YMR278W (gene YMR278W, Metabolism protein genes, DNA chip fluorescence ratio): 1.0
The level of expressed mRNA in the presence of chemical substance/The level of expressed mRNA in the absence of chemical substance, yeast gene YMR293C (gene YMR293C, Metabolism protein genes, DNA chip fluorescence ratio): 2.2
The level of expressed mRNA in the presence of chemical substance/The level of expressed mRNA in the absence of chemical substance, yeast gene YNL073W (gene YNL073W (mitochondria-located protein gene), yeast cultured two hours with chemical substance, DNA chip fluorescence ratio to control): 1.7
The level of expressed mRNA in the presence of chemical substance/The level of expressed mRNA in the absence of chemical substance, yeast gene YNR072W (gene YNR072W, Metabolism protein genes, DNA chip fluorescence ratio): 0.7
The level of expressed mRNA in the presence of chemical substance/The level of expressed mRNA in the absence of chemical substance, yeast gene YOL096C (gene YOL096C, Metabolism protein genes, DNA chip fluorescence ratio): 1.6
The level of expressed mRNA in the presence of chemical substance/The level of expressed mRNA in the absence of chemical substance, yeast gene YOR180C (gene YOR180C, Metabolism protein genes, DNA chip fluorescence ratio): 1.0
The level of expressed mRNA in the presence of chemical substance/The level of expressed mRNA in the absence of chemical substance, yeast gene YOR316C (gene YOR316C (mitochondria-located protein gene), yeast cultured two hours with chemical substance, DNA chip fluorescence ratio to control): 1.5
The level of expressed mRNA in the presence of chemical substance/The level of expressed mRNA in the absence of chemical substance, yeast gene YOR363C (gene YOR363C, Metabolism protein genes, DNA chip fluorescence ratio): 1.3
The level of expressed mRNA in the presence of chemical substance/The level of expressed mRNA in the absence of chemical substance, yeast gene YPL040C (gene YPL040C (mitochondria-located protein gene), yeast cultured two hours with chemical substance, DNA chip fluorescence ratio to control): 1.7
The level of expressed mRNA in the presence of chemical substance/The level of expressed mRNA in the absence of chemical substance, yeast gene YPL134C (gene YPL134C (mitochondria-located protein gene), yeast cultured two hours with chemical substance, DNA chip fluorescence ratio to control): 1.6
The level of expressed mRNA in the presence of chemical substance/The level of expressed mRNA in the absence of chemical substance, yeast gene YPR184W (gene YPR184W, Metabolism protein genes, DNA chip fluorescence ratio): 2.2
level of expressed mRNA in the presence of chemical substance / level in the absence of chemical substance (yeast gene YAL018C): 11.3
The level of expressed mRNA in the presence of chemical substance/The level of expressed mRNA in the absence of chemical substance (yeast gene YAL053W): 2.1
level of expressed mRNA in the presence of chemical substance / level in the absence of chemical substance (yeast gene YAR047C): 0.7
level of expressed mRNA in the presence of chemical substance / level in the absence of chemical substance (yeast gene YAR064W): 2.8
level of expressed mRNA in the presence of chemical substance / level in the absence of chemical substance (yeast gene YBL044W): 0.8
The level of expressed mRNA in the presence of chemical substance/The level of expressed mRNA in the absence of chemical substance (yeast gene YBL048W): 2.8
The level of expressed mRNA in the presence of chemical substance/The level of expressed mRNA in the absence of chemical substance (yeast gene YBL107C): 1.5
level of expressed mRNA in the presence of chemical substance / level in the absence of chemical substance (yeast gene YBR012C): 0.8
level of expressed mRNA in the presence of chemical substance / level in the absence of chemical substance (yeast gene YBR066C): 1.6
level of expressed mRNA in the presence of chemical substance / level in the absence of chemical substance (yeast gene YBR124W): 0.4
level of expressed mRNA in the presence of chemical substance / level in the absence of chemical substance (yeast gene YBR162C): 0.8
level of expressed mRNA in the presence of chemical substance / level in the absence of chemical substance (yeast gene YBR287W): 2.4
level of expressed mRNA in the presence of chemical substance / level in the absence of chemical substance (yeast gene YCL056C): 1.0
level of expressed mRNA in the presence of chemical substance / level in the absence of chemical substance (yeast gene YCR007C): 2.9
level of expressed mRNA in the presence of chemical substance / level in the absence of chemical substance (yeast gene YDL046W): 1.3
The level of expressed mRNA in the presence of chemical substance/The level of expressed mRNA in the absence of chemical substance (yeast gene YDL072C): 2.1
The level of expressed mRNA in the presence of chemical substance/The level of expressed mRNA in the absence of chemical substance (yeast gene YDL204W): 3.4
The level of expressed mRNA in the presence of chemical substance/The level of expressed mRNA in the absence of chemical substance (yeast gene YDL222C): 3.9
level of expressed mRNA in the presence of chemical substance / level in the absence of chemical substance (yeast gene YDR090C): 1.2
level of expressed mRNA in the presence of chemical substance / level in the absence of chemical substance (yeast gene YDR128W): 0.9

Source: US20100041089A1, “IMPROVED METHOD FOR DETECTING CHEMICAL […]” (priority 2006, published 2010)
